Experimental data from patent publication US7998924B2, “Compounds that bind to p185 and methods of using the same” (The Trustees of The University of Pennsylvania, priority 2001, dated 2011).
Where two headings read alike, the source gives them in different places.

What was measured:
[1] = Peptide solubility in PBS buffer at 1 mg/mL; type: physicochemical; conditions: pH 7.4, 1 mg/mL
Experimental: These peptides could be readily dissolved in the PBS buffer, pH 7.4, at 1 mg/mL concentration without adjustment of pH.

T6-17 cells = test system: T6-17 cells
Experimental: (See reference 46 below.) HER2-expressing transformed tumor cells (T6-17) were used for this purpose. […] Each value represents an average of at least four samples.
The MTT assay has been used for measuring cell growth as previously described in ref 446. Briefly, T6-17 cells were seeded in 96-well plates overnight in DMEM containing 10% FBS (1000 per well). T6-17 is derived from NIH3T3 by overexpressing the human HER2 receptor. Cells were cultured in 100 μL of fresh medium containing 1 μg/mL of peptides for 48 h. […] A total of 25 μL of MTT solution (5 mg/mL in PBS) was added to each well, and after 2 h of incubation at 37° C., 100 μA of the extraction buffer (20% w/v of SDS, 50% N,N-dimethyl formamide, pH 4.7) were added. After an overnight incubation at 37° C., the optical density at 600 rim was measured using an ELISA reader.

HER2 receptor [2] = biological target: T1, HER2 receptor (Homo sapiens, UniProt P04626); test: Biacore (surface plasmon resonance) binding of peptides to immobilized HER2
T1 construct: Recombinant purified HER2 receptor composed of the ectodomain of HER2 fused to the Fc of human IgG; purchased Xcyte Therapeutics, Seattle, Wash; (provided by Dr. Che Law; a gift, not a catalogue product)
T1 sequence (P04626 23-652 limits assumed): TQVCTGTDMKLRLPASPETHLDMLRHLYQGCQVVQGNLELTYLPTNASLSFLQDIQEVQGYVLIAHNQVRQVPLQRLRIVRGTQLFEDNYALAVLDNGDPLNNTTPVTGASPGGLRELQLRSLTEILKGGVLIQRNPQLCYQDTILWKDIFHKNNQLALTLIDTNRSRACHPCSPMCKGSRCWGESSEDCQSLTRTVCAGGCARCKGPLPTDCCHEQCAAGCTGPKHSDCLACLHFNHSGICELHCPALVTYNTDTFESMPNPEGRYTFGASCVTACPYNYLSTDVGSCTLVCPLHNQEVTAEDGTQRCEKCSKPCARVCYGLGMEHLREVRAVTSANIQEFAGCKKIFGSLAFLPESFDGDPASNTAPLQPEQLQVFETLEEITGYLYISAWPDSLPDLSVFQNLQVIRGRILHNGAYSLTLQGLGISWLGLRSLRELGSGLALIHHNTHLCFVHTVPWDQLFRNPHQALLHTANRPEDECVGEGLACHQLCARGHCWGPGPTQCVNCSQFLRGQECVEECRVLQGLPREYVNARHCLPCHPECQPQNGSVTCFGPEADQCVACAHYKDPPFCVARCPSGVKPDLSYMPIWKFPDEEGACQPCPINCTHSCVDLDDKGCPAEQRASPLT
Excerpt: Binding of AHNP has been studies by means of surface plasmon resonance (Biacore) technology. In Biacore experiments, one of the interacting molecules (termed the ligand) is immobilized on the sensor surface, and the other interactant (termed the analyte) is continuously flown over that surface in a micro-flow cell. The interaction between the ligand and the analyte are monitored using a light source that is reflected at the immobilized chip. Binding of the analyte to the immobilized ligand changes the resonance angle of the reflected light due to changes in the refractive index of the surface. The response is plotted in real time in the form of sensorgram curves. The advantage with this approach is its sensitivity, ease of use, and ability to perform experiments with few microgram quantities of proteins and peptides. In addition, the kinetic binding studies reveal association and disassociation rates of the analyte which may be more relevant for understanding the pharmacokinetics of drug-receptor interactions.
Binding experiments were performed with the surface plasmon resonance based biosensor instrument Biacore 3000 (Biacore AB, Uppsala, Sweden) at 25° C. Recombinant purified HER2 receptor composed of the ectodomain of HER2 fused to the Fc of human IgG was provided by Dr. Che Law, Xcyte Therapeutics, Seattle, Wash. Immobilization of HER2 in the sensor surface was performed following the standard amine coupling procedure according to manufacturer's instructions. Briefly, 35 pit of a solution containing 0.2M N-ethyl-N-(dimethylaminopropyl) carbodiimide (EDC) and 0.05 M N-hydroxysuccinimide (NHS) were injected at a flow rate of 5 μL/min to activate carboxyl groups on the sensor chip surface. HER2 (40 ng/mL in 10 mM NaOAc buffer, pH 5.0) was flowed over the chip surface at a flow rate of 20 μL/min until the desired level bound protein was reached. Unreacted protein was washed out and unreacted activated groups were blocked by the injection of 35 μL of 1 M ethanolamine at 5 μL/min. […] A reference surface was generated simultaneously under the same conditions but without HER2 injection and used as a blank to correct for instrument and buffer artifacts. Peptides were injected at variable concentrations at 20 μL/min flow rate and binding to the HER2 receptor immobilized on the chip was monitored in real time. Each sensorgram consists of an association phase (first 240 s), reflecting binding of the injected peptide to the receptor, followed by a dissociation phase (300 s), during which the running buffer is passed over the chip and the bound peptide is being washed off the receptor surface.

HER2 receptor [3] = biological target: T1, HER2 receptor; test: Biacore competition: AHNP preinjection inhibits rhumAb 4D5 binding to immobilized HER2
Experimental: It was shown earlier that the AHNP peptide can mimic some functions of the anti-HER2/neu antibody, rhumAb 4135 in vitro and in vivo (see reference 40 below). […] To that end, injections of AHNP at variable concentrations (from 0 to 90 μM) were followed by injections of rhumAb 4135 at a constant 1 nM concentration, using the “Coinject” mode of the Biacore instrument.
Binding experiments were performed with the surface plasmon resonance based biosensor instrument Biacore 3000 (Biacore AB, Uppsala, Sweden) at 25° C. Recombinant purified HER2 receptor composed of the ectodomain of HER2 fused to the Fc of human IgG was provided by Dr. Che Law, Xcyte Therapeutics, Seattle, Wash. Immobilization of HER2 in the sensor surface was performed following the standard amine coupling procedure according to manufacturer's instructions. Briefly, 35 pit of a solution containing 0.2M N-ethyl-N-(dimethylaminopropyl) carbodiimide (EDC) and 0.05 M N-hydroxysuccinimide (NHS) were injected at a flow rate of 5 μL/min to activate carboxyl groups on the sensor chip surface. HER2 (40 ng/mL in 10 mM NaOAc buffer, pH 5.0) was flowed over the chip surface at a flow rate of 20 μL/min until the desired level bound protein was reached. […] Peptides were injected at variable concentrations at 20 μL/min flow rate and binding to the HER2 receptor immobilized on the chip was monitored in real time. […]

For `CSCC[C@H](NC(=O)[C@H](Cc1ccc(O)cc1)NC(=O)[C@@H]1CSSC[C@H](NC(=O)[C@@H](N)Cc2ccccc2)C(=O)N[C@@H](CC(=O)O)C(=O)NCC(=O)N[C@@H](Cc2ccccc2)C(=O)N[C@@H](Cc2ccc(O)cc2)C(=O)N[C@@H](C)C(=O)N1)C(=O)N[C@@H](CC(=O)O)C(=O)N[C@H](C(N)=O)C(C)C` [Peptide 1], which solubility [1] is on record?
The solubility was under 1000 µg/mL.

What about the “% inhibition of T6-17 cell proliferation in MTT assays” value (T6-17 cells; 1 μg/mL of peptides for 48 h) of the same compound?
Its value is 35.5%.

And the “inhibition of growth of T6-17 cells (in words)” value (T6-17 cells; 0.01 to 10 μg/mL)?
The value was “dose-dependently”.

What about the koff (HER2 receptor [2]) of the same compound?
Its koff is 0.000453 s⁻¹.

And the kon (HER2 receptor [2])?
Its kon is 1410 M⁻¹ s⁻¹.

And the “receptor-binding affinity (in words)” value (HER2 receptor [2]; Biacore)?
Its value is “submicromolar”.

And the Kd (HER2 receptor [2]; Biacore, immobilized HER2, 25° C., read-out: binding to HER2 KD)?
The Kd was 320 nM.

And the koff (HER2 receptor [2]; read-out: binding to HER2 koff)?
The koff was 0.000453 s⁻¹.

What about the kon (HER2 receptor [2]; read-out: binding to HER2 kon) of the same compound?
Its kon is 1410 M⁻¹ s⁻¹.

And the IC50 (HER2 receptor [3])?
The IC50 was 3400 nM.
